Source: US4497802A, “N-Acyl glycopeptide derivatives” (Eli Lilly and Company, priority 1983, dated 1985)

Key:
Type in all cases: cell-based
[1] = tested on: Staphylococcus aureus X1.1; experiment: MIC, standard agar-dilution assay; details: Staphylococcus aureus X1.1; agar dilution
[2] = tested on: Staphylococcus aureus V41; experiment: MIC, standard agar-dilution assay; details: Staphylococcus aureus V41, penicillin-resistant strain; agar dilution
[3] = tested on: Staphylococcus aureus X400; experiment: MIC, standard agar-dilution assay; details: Staphylococcus aureus X400, methicillin-resistant strain
[4] = tested on: Staphylococcus aureus S13E; details: agar dilution
[5] = tested on: Staphylococcus epidermidis EPI1; details: Staphylococcus epidermidis EPI1; agar dilution
[6] = tested on: Staphylococcus epidermidis EPI2; experiment: MIC, standard agar-dilution assay
[7] = tested on: Streptococcus pyogenes C203; experiment: MIC, standard agar-dilution assay; details: Streptococcus pyogenes C203; agar dilution
[8] = tested on: Streptococcus pneumoniae Park I; details: agar dilution
[9] = tested on: Streptococcus Group D X66; experiment: MIC, standard agar-dilution assay; details: Streptococcus Group D X66; agar dilution
Streptococcus Group 9960 = experiment: MIC, standard agar-dilution assay; details: Streptococcus Group 9960; agar dilution
[10] = tested on: Haemophilus influenzae C.L.; experiment: MIC, standard agar-dilution assay; details: ampicillin-sensitive strain
[11] = tested on: Haemophilus influenzae 76; experiment: MIC, standard agar-dilution assay; details: Haemophilus influenzae 76, ampicillin-resistant strain

Substance	MIC [1] [µg/mL]	MIC [2] [µg/mL]	MIC [3] [µg/mL]	MIC [4] [µg/mL]	MIC [5] [µg/mL]	MIC [6] [µg/mL]	MIC [7] [µg/mL]	MIC [8]	MIC [9] [µg/mL]	MIC (Streptococcus Group 9960) [µg/mL]	MIC [10]	MIC [11]
N--[N--(t-Boc)--D-phenylglycyl]A35512B [Example 4]	4	8	16	8	8	16	2	2 µg/mL	8	4	-- (Compound not active at less than 128 mcg/ml)	-- (Compound not active at less than 128 mcg/ml)
N--(nonanoyl)A35512B pseudoaglycone [Example 13]	2	2	2	2	2	4	2	4 µg/mL	4	2	-- (Compound not active at less than 128 mcg/ml)	-- (Compound not active at less than 128 mcg/ml)
N-[N-(tert-butoxycarbonyl)-L-phenylalanyl]-A35512B [Example 1]	8	8	16	8	8	32	1	2 µg/mL	4	2	–	–
N--(11-aminoundecanoyl)A35512B pseudoaglycone [Example 15]	1	1	1	1	2	2	1	-- (Compound not active at less than 128 mcg/ml)	2	2	-- (Compound not active at less than 128 mcg/ml)	-- (Compound not active at less than 128 mcg/ml)
N--[N--(t-Boc)--11-aminoundecanoyl]A35512B pseudoaglycone [Example 14]	8	8	8	8	4	16	4	4 µg/mL	4	8	-- (Compound not active at less than 128 mcg/ml)	-- (Compound not active at less than 128 mcg/ml)
N--[N--(t-Boc)--L-phenylalanyl)A41030A [Example 16]	0.25	0.25	0.5	0.25	0.25	0.5	0.5	0.5 µg/mL	1	0.125	32 µg/mL	32 µg/mL
N--[N--(t-Boc)--L-phenylalanyl)A47934 [Example 23]	0.125	0.125	0.25	0.125	0.125	0.5	0.5	0.125 µg/mL	1	2	8 µg/mL	8 µg/mL
N--[N--(t-Boc)--11-aminoundecanoyl)A35512B [Example 6]	2	4	4	4	8	8	1	1 µg/mL	2	4	–	–
